Experimental data: patent US20250213563A1, “SUBSTITUTED PYRIMIDIN-4(3H)-ONES FOR USE IN TREATING CANCER” (NAVIRE PHARMA, INC., priority 2021, published 2025)
Where two headings read alike, the source gives them in different places.

How the values were obtained:
[1] = Single-dose pharmacokinetics, summary across species; assay type: in vivo; conditions: both sexes, CD-1, C57BL/6, Sprague Dawley, Beagle, mouse, rat, dog, monkey, plasma
Procedure: (§1) The pharmacokinetic (PK) parameters of Compound (10b) (freebase) were determined following single intravenous (IV) and oral (PO) administration in female CD-1 mouse, female C57BL/6 mouse (PO only), male Sprague Dawley rat, male Beagle dog, and male Cynomolgus monkey. Additional evaluation of the PK properties of Compound (10b) was obtained following single dose PO administration in female CD-1 mouse, male Sprague Dawley rat and male Beagle dog over a dose range spanning 10 to 300 mg/kg (mouse and rat) and 1 to 100 mg/kg (dog). The intravenous dose solutions were prepared in 20% DMSO-60% PEG400-20% water and the oral dose solutions as suspensions in 0.5% methylcellulose in water, unless otherwise noted. Plasma concentration profiles were generated from serial sampling in individual animals up to 24 hours post dose, except for the studies in mice where composite sampling methods were used (i.e. 3 sampling times per mouse; 9 mice per group). […] Exposures increased with increasing dose level across species, in a dose-proportional manner in mouse and dog, and in a greater than dose-proportional manner in rat (80× increase in AUC with a 30× increase in dosage).

[2] = Single oral dose exposure in NOD/SCID mice; assay type: in vivo; conditions: male, mouse; for Kp at 24 h: brain; for AUC(0-inf) / Cmax: plasma
Procedure: Male NOD/SCID mice (n=3 per group) were administered a single dose of Compound (10b) at 1, 3, 10, 30, and 100 mg/kg by oral gavage. Plasma was collected at 0.25, 1, 2, 4, 8, and 24 hours after each dose, and brains were collected at 24 hours after each dose. Compound (10b) concentrations were determined with LC-MS/MS.

[3] = test system: panel of 14 full-length human phosphatases; test: Eurofins Panlabs spectrofluorimetric phosphatase panel; assay type: biochemical; conditions: 10 μM
Procedure: (§2) The activity of Compound (10b) was also assessed against a panel of 14 full-length human phosphatases using spectrofluorimetric biochemical assays. These assays were conducted using the Eurofins Panlabs platform.

[4] = Single-dose pharmacokinetics, Sprague Dawley rat; assay type: in vivo, male); conditions: for AUC(0-t): read-out: AUC0→24
Procedure: as §1

[5] = test system: HCC827 cell line-derived xenograft (CDX) model; test: Monotherapy anti-tumor activity, HCC827 CDX model; assay type: in vivo; conditions: for tumor growth inhibition (TGI): day 1 to day 28
Procedure: An in vivo efficacy study was conducted to evaluate the monotherapy anti-tumor activity of Compound (10b) in female BALB/c nude mice bearing the non-small cell lung cancer (NSCLC) HCC827 cell line-derived xenograft (CDX) model, which harbors an EGFR exon 19 deletion (EGFR^ex19del) and EGFR amplification (EGFRamp). Mice (n=10 per group) were dosed daily orally with the indicated levels of Compound (10b) from day 1 to day 28, and a dose dependent reduction in tumor volume was observed. […] All groups dosed QD, PO Two-way mixed-effects ANOVA: *p<0.0001 vs vehicle.
In vivo efficacy studies were conducted to evaluate the monotherapy anti-tumor activity of Compound (10b) across a panel of cell line-derived xenograft (CDX) models. […] Significant anti-tumor efficacy was also observed in two CDX models with acquired resistance to EGFR inhibitors.

[6] = biological target: T1, Hematopoietic Progenitor Kinase 1 (HPK1) (Homo sapiens, UniProt Q92918); test: KINOMEscan competition binding and Kd dose-response
T1 construct: purchased DiscoverX (KINOMEscan platform)
Procedure: Activity of Compound (10b) (1 μM) was assessed against a panel of 419 human kinases (including a set of disease-relevant mutant variants). Assays were conducted using the KINOMEscan™ platform from DiscoverX which measures compound interaction with kinases using active site-directed competition binding assays. Displacement of ligand binding to the kinase by <35% of the control value is considered significant. Of the 419 kinases tested, only 4 kinases reached this level of displacement: Protein kinase C eta (PRKCH), 34% control; Large tumor suppressor kinase 1 (LATS1), 32% control; General control nonderepressible 2 kinase (GCN2), 21% control; and Hematopoietic Progenitor Kinase 1 (HPK1), 4.4% control.
HPK1 is a hematopoietic cell-restricted serine/threonine kinase and is not expressed in any major organs. HPK1 has been implicated in activation of c-Jun N-terminal kinases (JNK) and genetic disruption of HPK1 is reported to enhance the antitumor immune response of T cells and dendritic cells (Hu et al 1996; Sawasdikosol et al 2012).

[7] = Single-dose pharmacokinetics, C57BL/6 mouse; assay type: in vivo, mouse (C57BL/6; conditions: female, plasma, oral 10 mg/kg, free base
Procedure: as §1

human SHP-1 = biological target: T2, human SHP-1 (Homo sapiens, UniProt P29350); test: Eurofins Panlabs spectrofluorimetric phosphatase assay; assay type: biochemical; conditions: 10 μM
T2 construct: a panel of 14 full-length human phosphatases; purchased Eurofins Panlabs
Procedure: as §2

[8] = Single-dose pharmacokinetics, Cynomolgus monkey; assay type: in vivo, male); conditions: free base; for AUC(0-t): read-out: AUC0→24
Procedure: as §1

[9] = male, Sprague Dawley, rat, plasma, IV 0.3 mg/kg, free base
[10] = male, Sprague Dawley, rat, plasma, oral 10 mg/kg, free base
[11] = male, cynomolgus monkey, plasma, IV 0.3 mg/kg
[12] = male, cynomolgus monkey, plasma, oral 1 mg/kg

T1 sequence (Q92918 whole entry): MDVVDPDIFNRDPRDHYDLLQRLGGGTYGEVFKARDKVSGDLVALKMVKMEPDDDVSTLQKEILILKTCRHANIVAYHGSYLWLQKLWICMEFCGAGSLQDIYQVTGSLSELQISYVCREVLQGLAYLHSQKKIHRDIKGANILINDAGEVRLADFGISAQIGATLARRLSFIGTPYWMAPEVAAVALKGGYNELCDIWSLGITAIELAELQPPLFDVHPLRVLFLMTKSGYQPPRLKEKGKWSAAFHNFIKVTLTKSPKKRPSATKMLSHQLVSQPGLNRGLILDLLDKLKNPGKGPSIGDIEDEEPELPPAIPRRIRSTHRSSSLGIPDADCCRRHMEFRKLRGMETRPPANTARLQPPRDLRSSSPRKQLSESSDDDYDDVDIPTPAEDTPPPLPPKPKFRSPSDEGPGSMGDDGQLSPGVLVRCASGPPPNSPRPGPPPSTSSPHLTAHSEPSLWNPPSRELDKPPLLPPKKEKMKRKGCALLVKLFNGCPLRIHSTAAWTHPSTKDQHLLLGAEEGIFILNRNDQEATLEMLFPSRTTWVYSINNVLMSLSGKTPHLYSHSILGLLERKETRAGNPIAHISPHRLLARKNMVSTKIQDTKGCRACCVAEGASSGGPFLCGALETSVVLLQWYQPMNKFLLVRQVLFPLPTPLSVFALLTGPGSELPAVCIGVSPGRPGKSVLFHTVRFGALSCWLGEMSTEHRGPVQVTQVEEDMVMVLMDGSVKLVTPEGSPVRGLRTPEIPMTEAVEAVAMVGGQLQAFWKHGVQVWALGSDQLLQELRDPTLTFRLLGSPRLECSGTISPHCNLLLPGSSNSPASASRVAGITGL
T2 sequence (P29350 whole entry): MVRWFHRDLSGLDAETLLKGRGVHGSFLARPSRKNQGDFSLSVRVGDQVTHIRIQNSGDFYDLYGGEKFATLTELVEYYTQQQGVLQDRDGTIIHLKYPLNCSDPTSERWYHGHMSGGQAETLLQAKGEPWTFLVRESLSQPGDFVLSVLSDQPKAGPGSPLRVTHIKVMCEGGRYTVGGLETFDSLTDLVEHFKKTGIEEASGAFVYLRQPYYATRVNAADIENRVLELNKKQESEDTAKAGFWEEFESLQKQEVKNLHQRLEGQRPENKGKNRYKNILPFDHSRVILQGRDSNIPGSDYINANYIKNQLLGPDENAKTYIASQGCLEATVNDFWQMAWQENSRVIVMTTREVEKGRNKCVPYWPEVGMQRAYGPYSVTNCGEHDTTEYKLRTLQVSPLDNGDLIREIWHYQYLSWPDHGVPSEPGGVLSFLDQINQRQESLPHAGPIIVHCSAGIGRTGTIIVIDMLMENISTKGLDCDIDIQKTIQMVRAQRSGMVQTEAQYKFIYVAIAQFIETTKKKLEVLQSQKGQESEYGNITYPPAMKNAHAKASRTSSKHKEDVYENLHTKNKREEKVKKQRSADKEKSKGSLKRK

Cc1c(N2CCC3(CC2)CO[C@@H](C)[C@H]3N)nc(C)n(-c2cccc(Cl)c2Cl)c1=O (atropisomer, axis not shown; (Ra)) [Compound (10b), 6-((3S,4S)-4-amino-3-methyl-2-oxa-8-azaspiro[4.5]decan-8-yl)-3-(Ra)-(2,3-dichlorophenyl)-2,5-dimethylpyrimidin-4(3H)-one]
Tmax ([1]; oral 1-100 mg/kg): 0.25 to 3.67 h | bioavailability ([1]; oral doses 3- to 30-fold higher than intravenous doses, read-out: apparent oral bioavailabilities): 51.2 to 115% | Kp at 24 h ([2]; oral, mean over doses 1-100 mg/kg, read-out: mean total brain/plasma level at 24 hours): 0.33 | Kp at 24 h ([2]; single oral dose 1 mg/kg, read-out: total brain/plasma levels at 24 hours): 0.35 | Kp at 24 h ([2]; single oral dose 3 mg/kg, read-out: total brain/plasma levels at 24 hours): 0.31 | Kp at 24 h ([2]; single oral dose 10 mg/kg, read-out: total brain/plasma levels at 24 hours): 0.3 | Kp at 24 h ([2]; single oral dose 30 mg/kg, read-out: total brain/plasma levels at 24 hours): 0.31 | Kp at 24 h ([2]; single oral dose 100 mg/kg, read-out: total brain/plasma levels at 24 hours): 0.37 | AUC(0-inf) ([2]; single oral dose 1 mg/kg): 1030 ng·h/mL | Cmax ([2]; single oral dose 1 mg/kg): 160 ng/mL | AUC(0-inf) ([2]; single oral dose 3 mg/kg): 3530 ng·h/mL | Cmax ([2]; single oral dose 3 mg/kg): 507 ng/mL | AUC(0-inf) ([2]; single oral dose 10 mg/kg): 13000 ng·h/mL | Cmax ([2]; single oral dose 10 mg/kg): 2030 ng/mL | AUC(0-inf) ([2]; single oral dose 30 mg/kg): 30600 ng·h/mL | Cmax ([2]; single oral dose 30 mg/kg): 4870 ng/mL | AUC(0-inf) ([2]; single oral dose 100 mg/kg): 123000 ng·h/mL | Cmax ([2]; single oral dose 100 mg/kg): 13900 ng/mL | inhibition of phosphatases [3]: No significant inhibition | half-life [4, 9]: 9.18 h | AUC(0-t) [4, 9]: 3.27 µM·h | clearance ([4]; male, Sprague Dawley, rat, plasma, IV 0.3 mg/kg, free base, read-out: Clp (converted)): 10.2 mL/min/kg | Vd ([4]; male, Sprague Dawley, rat, plasma, IV 0.3 mg/kg, free base, read-out: Vdss): 6.05 L/kg | Cmax [4, 10]: 3.05 µM | AUC(0-t) [4, 10]: 19.1 µM·h | Tmax ([4]; male, Sprague Dawley, rat, plasma, oral 10 mg/kg, free base, read-out: Tmax (mean)): 0.92 h | Tmax ([4]; male, Sprague Dawley, rat, plasma, oral 300 mg/kg, read-out: mean Tmax): ≤ 8 h | F ([4]; oral 10 mg/kg, free base): 51.2% | increase in AUC ([4]; oral, with a 30× increase in dosage (10 to 300 mg/kg)): 80 × | tumor growth inhibition (TGI) ([5]; 3 mg/kg QD PO): 41% | tumor growth inhibition (TGI) ([5]; 10 mg/kg QD PO): 84% | tumor growth inhibition (TGI) ([5]; 30 mg/kg QD PO): 98% | mean tumor regression ([5]; 100 mg/kg QD PO): 60% | impact of treatment on body weight ([5]; 3-100 mg/kg QD PO): no impact | tolerability ([5]; 3-100 mg/kg QD PO): well tolerated | ED90 ([5]; QD PO): 10 mg/kg | ligand binding, % of control at 1 µM ([6]; 1 μM): 4.4% | Kd ([6]; dose-response curve): 9.8 µM | Cmax [7]: 5.4 µM | Tmax [7]: 1 h | AUC(0-t) ([7]; read-out: AUC0→24): 39 µM·h | inhibition of human SHP-1 (human SHP-1): did not demonstrate any inhibition | half-life [8, 11]: 6.44 h | AUC(0-t) [8, 11]: 1.82 µM·h | clearance ([8]; male, cynomolgus monkey, plasma, IV 0.3 mg/kg, read-out: Clp (converted)): 6 mL/min/kg | Vd ([8]; male, cynomolgus monkey, plasma, IV 0.3 mg/kg, read-out: Vdss): 2.74 L/kg | Cmax [8, 12]: 0.43 µM | Tmax [8, 12]: 2.67 h | AUC(0-t) [8, 12]: 4.52 µM·h | F ([8]; oral 1 mg/kg): 52.3%
